Assay results taken from US9499493B2, “2,4-pyrimidinediamine compounds and their uses” (Rigel Pharmaceuticals, Inc., priority 2002, dated 2016).

Experiments:
[1] = test system: cultured human mast cells (CHMC); test: CHMC low cell density IgE activation: tryptase assay; type: cell-based; conditions: anti-IgE
Outline: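 Read-out: tryptase released into supernatant, measured by substrate turnover over 30 min at RT. Low-density CHMC (1000-1500 cells/well, per donor degranulation activity) in MT buffer, 1 hr at 37° C, then anti-IgE challenge 30 min at 37° C.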

[2] = test system: cultured human mast cells (CHMC); test: CHMC low cell density ionomycin activation: tryptase assay; type: cell-based

Row | Compound | IC50 [1] | IC50 [2]
1 | CC(C)(C)OC(=O)COc1ccc(Nc2ncc(F)c(Nc3ccc(OCC(=O)OC(C)(C)C)cc3)n2)cc1 [R926574, N2,N4-Bis[4-(tert-butoxycarbonylmethyleneoxy)phenyl]-5-fluoro-2,4-pyrimidinediamine] | 1.96 µM | 2.63 µM
2 | CC(C)(C)OC(=O)COc1ccc(Nc2nc(Cl)c(Cl)c(Nc3ccc(OCC(=O)OC(C)(C)C)cc3)n2)cc1 [R926576, N2,N4-Bis(4-tert-butoxyoxycarbonylmethyleneoxyphenyl)-5,6-dichloro-2,4-pyrimidinediamine] | > 10 µM | > 10 µM
3 | CCOC(=O)c1cnc(Nc2ccc(OCC(=O)OC)cc2)nc1Nc1ccc(OCC(=O)OC(C)(C)C)cc1 [R926579, N4-(4-tert-Butoxycarbonylmethyleneoxyphenyl)-5-ethoxycarbonyl-N2-(4-methoxycarbonylmethyleneoxyphenyl)-2,4-pyrimidinediamine] | > 10 µM | > 10 µM
4 | COC(=O)COc1ccc(Nc2ncc(C(=O)OC)c(Nc3ccc(OCC(=O)OC(C)(C)C)cc3)n2)cc1 [R926580, N4-(4-tert-Butoxycarbonylmethyleneoxyphenyl)-N2-(4-methoxycarbonylmethyleneoxyphenyl)-5-methoxycarbonyl-2,4-pyrimidinediamine] | 10 µM | > 10 µM
5 | CCOC(=O)c1cnc(Nc2ccc(OCC(=O)OC)cc2)nc1Nc1ccc(OCC(=O)O)cc1 [R926583, N4-(4-Carboxymethyleneoxyphenyl)-5-ethoxycarbonyl-N2-(4-methoxycarbonylmethyleneoxyphenyl)-2,4-pyrimidinediamine] | > 10 µM | > 10 µM
6 | CCOC(=O)c1cnc(Nc2ccc(OCC(=O)O)cc2)nc1Nc1ccc(OCC(=O)OC)cc1 [R926584, N2-(4-Carboxymethyleneoxyphenyl)-5-ethoxycarbonyl-N4-(4-methoxycarbonylmethyleneoxyphenyl)-2,4-pyrimidinediamine] | > 10 µM | > 10 µM
7 | C=CCNC(=O)Nc1c(Nc2ccc(OCC(=O)OCC)cc2)nc(Nc2ccc(OCC(=O)OCC)cc2)nc1C(=O)OCC [R926585] | > 10 µM | > 10 µM
8 | CCOC(=O)COc1ccc(Nc2nc(Nc3ccc(OCC(=O)OCC)cc3)c(NC(=O)NC(=O)OCC)c(C(=O)OCC)n2)cc1 [R926586, N2,N4-Bis(4-ethoxycarbonylmethyleneoxyphenyl)-6-ethoxycarbonyl-5-(ethoxycarbonylaminocarbonylamino)-2,4-5-pyrimidinetriamine] | 2.75 µM | > 10 µM
9 | CCOC(=O)CNC(=O)Nc1c(Nc2ccc(OCC(=O)OCC)cc2)nc(Nc2ccc(OCC(=O)OCC)cc2)nc1C(=O)OCC [R926587, N2,N4-Bis(4-ethoxycarbonylmethyleneoxyphenyl)-6-ethoxycarbonyl-5-(ethoxycarbonylmethyleneaminocarbonylamino)-2,4-pyrimidinediamine] | > 10 µM | > 10 µM
10 | CCOC(=O)COc1ccc(Nc2nc(Nc3ccc(OCC(=O)OCC)cc3)c(NC(=O)NC3CCCC3)c(C(=O)OCC)n2)cc1 [R926588, N2,N4-Bis(4-ethoxycarbonylmethyleneoxyphenyl)-6-ethoxycarbonyl-5-(cyclopentylaminocarbonylamino)-2,4-pyrimidinediamine] | 7.85 µM | > 10 µM
11 | CSc1nc(Nc2cccc(O)c2)nc(Nc2cccc(O)c2)c1Cl [R926595, N2,N4-Bis(3-hydroxyphenyl)-5-chloro-6-thiomethyl-2,4-pyrimidinediamine] | 4.85 µM | > 10 µM
12 | COCc1cc(=O)oc2cc(Nc3ncc(F)c(Nc4ccc5c(COC)cc(=O)oc5c4)n3)ccc12 [R926620] | 8.35 µM | > 10 µM
13 | COCOc1ccc(Nc2nc(Nc3cccc(O)c3)ncc2F)c(F)c1 [R926680, 5-Fluoro-N4-[2-fluoro-4-(methoxymethyleneoxy)phenyl]-N2-(3-hydroxyphenyl)-2,4-pyrimidinediamine] | 1.71 µM | > 10 µM
14 | Oc1cccc(Nc2ncc(F)c(Nc3ccc(OCCN4CCOCC4)cc3)n2)c1 [R926710, 5-Fluoro-N2-(3-hydroxyphenyl)-N4-[4-[2-(N-morpholino)ethyleneoxy]phenyl]-2,4-pyrimidinediamine] | 1.76 µM | > 10 µM
15 | CNC(=O)COc1ccc(Nc2ncc(F)c(Nc3ccc(C(C)(C)C)cc3)n2)cc1 [R926712, N4-(4-tert-Butylphenyl)-5-fluoro-N2-[4-(N-methylamino)carbonylmethyleneoxyphenyl]-2,4-pyrimidinediamine] | 1.08 µM | > 10 µM
16 | CNC(=O)COc1cccc(Nc2ncc(F)c(Nc3ccc(C(C)(C)C)cc3)n2)c1 [R926714, N4-(4-tert-Butylphenyl)-5-fluoro-N2-[3-(N-methylamino)carbonylmethyleneoxyphenyl]-2,4-pyrimidinediamine] | 0.428 µM | > 10 µM
17 | CN(C)C(=O)c1cc2cc(Nc3ncc(F)c(Nc4cccc(O)c4)n3)ccc2o1 [R926718, 5-Fluoro-N4-(3-hydroxyphenyl)-N2-[2-(N-dimethylamino)carbonylbenzofuran-5-yl]-2,4-pyrimidinediamine] | 1.83 µM | > 10 µM
18 | CC(C)(C)c1ccc(Nc2nc(Nc3cccc(OCCO)c3)ncc2F)cc1 [R926728] | 0.482 µM | > 10 µM
19 | COc1ccc(Nc2nc(Nc3cccc(OCC(=O)NCC(O)CO)c3)ncc2F)cc1OC (centres unmarked) [R926734, N2-[3-(N-2,3-Dihydroxypropylamino)carbonylmethyleneoxyphenyl]-N4-(3,4-dimethoxyphenyl)-5-fluoro-2,4-pyrimidinediamine] | 4.49 µM | > 10 µM
20 | OCCOc1cccc(Nc2ncc(CO)c(Nc3cccc(O)c3)n2)c1 [R926735, 5-(Hydroxymethyl)-N2-[3-(2-hydroxyethyleneoxy)phenyl]-N4-(3-hydroxyphenyl)-2,4-pyrimidinediamine] | 3.71 µM | > 10 µM
21 | COc1cccc(Nc2nc(Nc3cccc(OCC(=O)NCC(O)CO)c3)ncc2F)c1 (centres unmarked) [R926739, N2-[3-(N-2,3-Dihydroxypropylamino)carbonylmethyleneoxyphenyl]-5-fluoro-N4-(3-methoxyphenyl)-2,4-pyrimidinediamine] | 0.508 µM | > 10 µM

The remaining lines, values ahead:

Row | IC50 [1] | IC50 [2] | Compound
22 | 0.76 µM | > 10 µM | CCOC(=O)COc1ccc(Nc2ncc(F)c(Nc3ccc(OCC(=O)OCC)c(Cl)c3)n2)cc1Cl [R926676, N2,N4-Bis[3-chloro-4-(ethoxycarbonylmethyleneoxy)phenyl]-5-fluoro-2,4-pyrimidinediamine]
23 | 0.886 µM | > 10 µM | CC1(C)COC(COc2ccc(Nc3ncc(F)c(Nc4cccc(O)c4)n3)cc2)=N1 [R926702, 5-Fluoro-N4-(3-hydroxyphenyl)-N2-[4-[(4,4-dimethyl-3-oxazolin-2-yl)methyleneoxy]phenyl]-2,4-pyrimidinediamine]
24 | 0.472 µM | > 10 µM | CNC(=O)COc1ccc(Nc2ncc(F)c(Nc3ccc4c(c3)OCCO4)n2)cc1 [R926708, N4-(3,4-Ethylenedioxyphenyl)-5-fluoro-N2-[4-(N-methylamino)carbonylmethyleneoxyphenyl]-2,4-pyrimidinediamine]
25 | 0.858 µM | > 10 µM | Fc1cnc(Nc2ccc(OCCN3CCOCC3)cc2)nc1Nc1ccc2c(c1)OCCO2 [R926709, N4-(3,4-Ethylenedioxyphenyl)-5-fluoro-N2-[4-[2-(N-morpholino)ethyleneoxy]phenyl]-2,4-pyrimidinediamine]
26 | 1.25 µM | > 10 µM | Fc1cnc(Nc2ccc3c(c2)OCCO3)nc1Nc1ccc(OCCN2CCOCC2)cc1 [R926711, N2-(3,4-Ethylenedioxyphenyl)-5-fluoro-N4-[4-[2-(N-morpholino)ethyleneoxy]phenyl]-2,4-pyrimidinediamine]
27 | > 10 µM | > 10 µM | CC(C)(C)c1ccc(Nc2nc(Nc3cccc(OCC(=O)O)c3)ncc2F)cc1 [R926726, N4-(4-tert-Butylphenyl)-N2-(3-carboxymethyleneoxyphenyl)-5-fluor-2,4-pyrimidinediamine]
28 | 0.387 µM | > 10 µM | CCOC(=O)CSc1ccc(Nc2ncc(F)c(Nc3ccc4c(c3)OCCO4)n2)cn1 [R926727, N2-[2-(Ethoxycarbonylmethylenethio)pyridin-5-yl]-N4-(3,4-ethylenedioxyphenyl)-5-fluoro-2,4-pyrimidinediamine]
29 | 0.251 µM | > 10 µM | CNC(=O)COc1cccc(Nc2ncc(F)c(Nc3ccc(OC(C)C)cc3)n2)c1 [R926730, 5-Fluoro-N4-(4-isopropoxyphenyl)-N2-[3-(N-methylamino)carbonylmethyleneoxyphenyl]-2,4-pyrimidinediamine]
30 | > 10 µM | > 10 µM | CC(C)Oc1ccc(Nc2nc(Nc3cccc(OCC(=O)O)c3)ncc2F)cc1 [R926731, 5-Fluoro-N2-[3-(carboxymethyleneoxy)phenyl]-N4-[4-(isopropoxy)phenyl]-2,4-pyrimidinediamine]
31 | 0.444 µM | > 10 µM | CNC(=O)COc1cccc(Nc2ncc(F)c(Nc3ccc4c(c3)OC(F)(F)C(F)(F)O4)n2)c1 [R926732, 5-Fluoro-N4-[3,4-(1,1,2,2-tetrafluoroethylendioxy)phenyl]-N2-[3-(N-methylamino)carbonylmethyleneoxyphenyl]-2,4-pyrimidinediamine]
32 | 1.5 µM | > 10 µM | CNC(=O)COc1cccc(Nc2ncc(F)c(Nc3ccc(OC)c(OC)c3)n2)c1 [R926733, N4-(3,4-Dimethoxyphenyl)-5-fluoro-N2-[3-(N-methylamino)carbonylmethyleneoxyphenyl]-2,4-pyrimidinediamine]
33 | 0.342 µM | > 10 µM | CNC(=O)COc1cccc(Nc2ncc(F)c(Nc3cccc(OC)c3)n2)c1 [R926738, 5-Fluoro-N4-(3-methoxyphenyl)-N2-[3-(N-methylamino)carbonylmethyleneoxyphenyl]-2,4-pyrimidinediamine]
34 | 4.42 µM | > 10 µM | CCOC(=O)COc1ccc(Nc2ncc(F)c(Nc3ccc4c(c3)OCCO4)n2)cn1 [R926740, N2-[2-(Ethoxycarbonylmethyleneoxy)pyridin-5-yl]-N4-(3,4-ethylenedioxyphenyl)-5-fluoro-2,4-pyrimidinediamine]
